This is an account of results in patent publication US20240025906A1 (NEURON23, INC., priority 2022, published 2024).

Like-named read-outs stand apart in the source and are kept apart here.

The subject of assay [1] is JAK1/TYK2 pSTAT5 (Tyr694/699) in THP-1 cell line. The assay can be described thus: IFNa-stimulated JAK1/TYK2 pSTAT5 (Tyr694/699) inhibition cellular assay, AlphaLISA. The assay is classed as cell-based. The note with it: Homo sapiens, THP-1 cells, AlphaLISA (Assay B), read-out: Cellular_THP1_IFNa-pSTATS_TYK2. As for the experimental part: Assay B: JAK1/TYK2 pSTAT5 (Tyr694/699) inhibition IC50 Cellular Assays
To evaluate the inhibition effect of compounds disclosed herein against TYK2, an IFNa-stimulated JAE1/TYK2 pSTAT5 (Tyr694/699) quantification assay was conducted in the THP-1 cell line using an AlphaLISA detection method (PerkinElmer ALSU-PST5). Compounds in DMSO were serially diluted in a 96-well plate (10 mM starting concentration, 6-fold dilutions, 8 concentrations total) prior to dispensing of 8 nL into a 384-well plate using an I.DOT non-contact liquid handler (Dispendix). Cells were collected via centrifugation at 300 ref for 5 min and resuspended in Hanks' Balanced Salt Solution (Gibco 14175-079), and 6 μl containing 2e4 cells was dispensed into each well of the 384-well plate containing test compounds or DMSO alone (final concentrations: 10000, 1666.67, 277.78, 46.30, 7.72, 1.29, 0.21 and 0.04 nM). Cells were then incubated for 1 h at 37° C. with 5% CO2 prior to the addition of 2 μL IFNa (100 ng/mL; PBL Assay Science 11175-1). Following an additional 30 min incubation at 37° C. with 5% CO2, 2 μL of 5× lysis buffer was added to each well using the I.DOT […]. Plates were sealed and incubated at RT for 10 min on a plate shaker set to 400 RPM. Cell lysates were then frozen at −80° C. before subsequent detection of pSTAT5 by AlphaLISA. At the time of the detection assay, cell lysates were thawed for 5 min at room temperature and then on a plate shaker set to 400 RPM for an additional 10 min. Following the manufacturer recommended protocol (Perkin Elmer), 5 μL of acceptor bead master mix was added to each well; plates were then resealed and incubated for 2 min at RT on a plate shaker (400 rpm) prior to an additional 2-h incubation without agitation (protected from light). Donor bead master mix, 5 uL per well, was then added to each well before 2 min of shaking (RT, 400 rpm) and 2-h incubation (RT, no shaking, protected from light). Levels of pSTAT5 protein were then measured as fluorescent signal at 615 nm with an EnVision multimode plate reader (Perkin Elmer). IC50 values were calculated in Dotmatics using the four-parameter logistic curve regression model with bottom fixed to 0 and Hill Slope fixed to −1.
Background: In Alpha technology, singlet oxygen from a donor bead excites a nearby acceptor bead.

The next assay has as its target T1, TYK2 JH2 (Homo sapiens, UniProt P29597).
T1 construct: purchased DiscoverX (KINOMEscan KdELECT service); host or cells: E. coli BL21-derived (T7 phage display) or HEK-293
The assay can be described thus: TYK2 JH2 binding assay (KINOMEscan KdELECT competitive binding). The note with it: TYK2 JH2 domain, DiscoverX KINOMEscan KdELECT (Assay A); read-out: Biochemical TYK2_DiscoverX_JH2_BND_Kd. As for the experimental part: Assay A: TYK2 JH2 Binding Assay
Competitive binding studies using TKY2 JH2-domain fragments were conducted by DiscoverX using the KINOMEscan (KdELECT) platform. Kinase-tagged T7 phage strains were prepared in an E. coli host derived from the BL21 strain. E. coli were grown to log-phase and infected with […] and incubated with shaking at 32° C. until lysis. The lysates were centrifuged and filtered to remove cell debris. The remaining kinases were produced in HEK-293 cells and subsequently tagged with DNA for qPCR detection. Streptavidin-coated magnetic beads were treated with biotinylated small molecule ligands for 30 minutes at room temperature to generate affinity resins for kinase assays. The liganded beads were blocked with excess biotin and washed with blocking buffer (SeaBlock (Pierce), 1% BSA, 0.05% Tween 20, 1 mM DTT) to remove unbound ligand and to reduce non-specific binding. Binding reactions were assembled by combining kinases, liganded affinity beads, and test compounds in 1× binding buffer (20% SeaBlock, 0.17×PBS, 0.05% Tween 20, 6 mM DTT). Test compounds were prepared as 111× stocks in 100% DMSO. Kds were determined using an 11-point 3-fold compound dilution series with three DMSO control points. All compounds for Kd measurements are distributed by acoustic transfer (non-contact dispensing) in 100% DMSO. The compounds were then diluted directly into the assays such that the final concentration of DMSO was 0.9%. All reactions performed in polypropylene 384-well plate. Each was a final volume of 0.02 ml. The assay plates were incubated at room temperature with shaking for 1 hour and the affinity beads were washed with wash buffer (1×PBS, 0.05% Tween 20). The beads were then re-suspended in elution buffer (1×PBS, 0.05% Tween 20, 0.5 μM non-biotinylated affinity ligand) and incubated at room temperature with shaking for 30 minutes. The kinase concentration in the eluates was measured by qPCR.

The mark [2] stands for this setting: IFNa-stimulated pSTAT5 (Tyr694/699).

T1 sequence (P29597 589-875 limits assumed): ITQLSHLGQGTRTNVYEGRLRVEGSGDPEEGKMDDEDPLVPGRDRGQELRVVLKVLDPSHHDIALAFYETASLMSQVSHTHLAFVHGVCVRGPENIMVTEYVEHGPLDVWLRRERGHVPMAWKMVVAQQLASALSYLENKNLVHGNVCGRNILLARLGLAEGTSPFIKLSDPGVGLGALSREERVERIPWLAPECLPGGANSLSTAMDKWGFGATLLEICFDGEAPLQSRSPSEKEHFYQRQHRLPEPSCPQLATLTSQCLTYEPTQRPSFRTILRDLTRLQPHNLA

On to `CNc1ncc(-c2nc3cc(C4CCN([C@@]5(C)COC[C@H]5O)CC4)ccc3o2)c2cc(NC(=O)C3CC3)ncc12` (racemic) [Example 260, N-(5-(5-(1-(4-hydroxy-3-methyltetrahydrofuran-3-yl)piperidin-4-yl)benzo[d]oxazol-2-yl)-8-(methylamino)-2,7-naphthyridin-3-yl)cyclopropanecarboxamide], for which the IC50 in assay [1] (IFNa-stimulated) is at most 500 nM. Also, on TYK2 JH2, the Kd is at most 100 nM.
Take `CNc1ncc(-c2nc3cc(N4C[C@@H](C)O[C@H](C)C4)ccc3o2)c2cc(NC(=O)C3CC3)ncc12` (racemic) [Example 316, N-(5-(5-(2,6-dimethylmorpholino)benzo[d]oxazol-2-y1)-8-(methylamino)-2,7-naphthyridin-3-yl)cyclopropanecarboxamide (trans racemate)]: the IC50 in assay [1] (IFNa-stimulated) was at most 500 nM. Also, the Kd at TYK2 JH2 is at most 100 nM.
As to `CNc1ncc(-c2nc3cc(OC)ccc3o2)c2cc(NC(=O)[C@@H]3C[C@H]3C)ncc12` (racemic) [Example 382, N-(5-(5-methoxybenzo[d]oxazol-2-yl)-8-(methylamino)-2,7-naphthyridin-3-y1)-2-methylcyclopropane-1~carboxamide], the IC50 in assay [1] (IFNa-stimulated) is at most 500 nM. Also, the Kd at TYK2 JH2 is at most 100 nM.
For `CNc1ncc(-c2nc3cc(OC)ccc3o2)c2cc(NC(=O)[C@@H]3C[C@@H]3C)ncc12` (racemic) [Example 383, N-(5-(5-methoxybenzo[d]oxazol-2-yl)-8-(methylamino)-2,7-naphthyridin-3-y1)-2-methylcyclopropane-1-carboxamide], in that order: at most 500 nM and at most 100 nM.
In the same order, the values of `CNc1ncc(-c2nc3cc(OC)ccc3o2)c2cc(NC(=O)[C@@H]3C[C@H]3C#N)ncc12` (racemic) [Example 385, 2-cyano-N-(5-(5-methoxybenzo[d]oxazol-2-y1)-8-(methylamino)-2,7-naphthyridin-3-yl)cyclopropane-1-carboxamide] are at most 500 nM and at most 100 nM.
With `CCOC(=O)[C@@H]1C[C@@H]1C(=O)Nc1cc2c(-c3nc4cc(OC)ccc4o3)cnc(NC)c2cn1` (racemic) [Example 391, ethyl 2-((5-(5-methoxybenzo[d]oxazol-2-yl)-8-(methylamino)-2,7-naphthyridin-3-yl)carbamoyl)cyclopropane-1-carboxylate], the IC50 in assay [1] (IFNa-stimulated) is at most 500 nM. Further, the Kd at TYK2 JH2 was at most 100 nM.
`CNc1ncc(-c2nc3cc(OC)ccc3o2)c2cc(NC(=O)[C@@H]3C[C@@H]3C(F)F)ncc12` (racemic) [Example 393, 2-(difluoromethyl)-N-(5-(5-methoxybenzo[d]oxazol-2-yl)-8-(methylamino)-2,7-naphthyridin-3-yl)cyclopropane-1-carboxamide]: the IC50 in assay [1] (IFNa-stimulated) is at most 500 nM. The Kd at TYK2 JH2 is at most 100 nM.
With `CNc1ncc(C#Cc2ccc(Cn3cccn3)cn2)c2cc(NC(=O)C3CC3)ncc12` [Example 907, N-(5-((5-((1H-pyrazol-1-yl)methyl)pyridin-2-yl)ethynyl)-8-(methylamino)-2,7-naphthyridin-3-yl)cyclopropanecarboxamide], the IC50 in assay [1] (IFNa-stimulated) is at most 500 nM.
Turning to `CNc1ncc(C#Cc2ccc(Cn3nccn3)cn2)c2cc(NC(=O)C3CC3)ncc12` [Example 908, N-(5-((5-((2H-1,2,3-triazol-2-yl)methyl)pyridin-2-yl)ethynyl)-8-(methylamino)-2,7-naphthyridin-3-yl)cyclopropanecarboxamide], in assay [1] (IFNa-stimulated), the IC50 was at most 500 nM.
Consider `CNc1ncc(C#Cc2ccc(Cn3ccnn3)cn2)c2cc(NC(=O)C3CC3)ncc12` [Example 909, N-(5-((5-((1H-1,2,3-triazol-1-yl)methyl)pyridin-2-yl)ethynyl)-8-(methylamino)-2,7-naphthyridin-3-yl)cyclopropanecarboxamide], for which the IC50 in assay [1] (IFNa-stimulated) is at most 500 nM.
As for `CNc1ncc(C#Cc2ccc(C(C)(C)C#N)cc2)c2cc(NC(=O)C3CC3)ncc12` [Example 910, N-(5-((4-(2-cyanopropan-2-yl)phenyl)ethynyl)-8-(methylamino)-2,7-naphthyridin-3-yl)cyclopropanecarboxamide], in assay [1] (IFNa-stimulated), the IC50 is at most 500 nM.
As to `CNc1ncc(C#Cc2ccc(CC#N)cn2)c2cc(NC(=O)C3CC3)ncc12` [Example 911, N-(5-((5-(cyanomethyl)pyridin-2-yl)ethynyl)-8-(methylamino)-2,7-naphthyridin-3-yl)cyclopropanecarboxamide], the IC50 in assay [1] (IFNa-stimulated) was at most 500 nM.
Still for that read-out and setting: then `CNc1ncc(C#Cc2ccc(CN3CC(OC)C3)cn2)c2cc(NC(=O)C3CC3)ncc12` [Example 912, N-(5-((5-((3-methoxyazetidin-1-yl)methyl)pyridin-2-yl)ethynyl)-8-(methylamino)-2,7-naphthyridin-3-yl)cyclopropanecarboxamide], with at most 500 nM.
For `CNc1ncc(-c2nc3ncc(C)cc3o2)c2cc(NC(=O)C3CC3)ncc12` [Example 1104, N-(8-(methylamino)-5-(6-methyloxazolo[4,5-b]pyridin-2-yl)-2,7-naphthyridin-3-yl)cyclopropanecarboxamide], in assay [1] (setting [2]), the IC50 was at most 500 nM.
Still for that read-out and setting: then `CNc1ncc(C#Cc2nccc3cc(F)ccc23)c2cc(NC(=O)C3CC3)ncc12` [Example 1135, N-(5-((6-fluoroisoquinolin-1-yl)ethynyl)-8-(methylamino)-2,7-naphthyridin-3-yl)cyclopropanecarboxamide], with at most 500 nM.
In the case of `CNc1ncc(C#Cc2ccc3c(=O)n(C)ccc3c2)c2cc(NC(=O)C3CC3)ncc12` [Example 1136, N-(5-((2-methyl-1-oxo-1,2-dihydroisoquinolin-6-yl)ethynyl)-8-(methylamino)-2,7-naphthyridin-3-yl)cyclopropanecarboxamide], in assay [1] (setting [2]), the IC50 was at most 500 nM.
On the same count and under the same terms, then `CNc1ncc(C#Cc2cccc3c2CNCC3)c2cc(NC(=O)C3CC3)ncc12` [Example 1137, N-(8-(methylamino)-5-((1,2,3,4-tetrahydroisoquinolin-8-yl)ethynyl)-2,7-naphthyridin-3-yl)cyclopropanecarboxamide], with over 500 nM; and `CNc1ncc(C#Cc2cn(C(F)F)c(C)n2)c2cc(NC(=O)[C@H]3C[C@H]3C)ncc12` [Example 1139, (1S,2R)—N-(5-((1-(difluoromethyl)-2-methyl-1H-imidazol-4-yl)ethynyl)-8-(methylamino)-2,7-naphthyridin-3-yl)-2-methylcyclopropanecarboxamide], with at most 500 nM.
Take `CNc1ncc(C#Cc2cnc(C)n2C(F)F)c2cc(NC(=O)[C@H]3C[C@H]3C)ncc12` [Example 1140, (1S,2R)—N-(5-((1-(difluoromethyl)-2-methyl-1H-imidazol-5-yl)ethynyl)-8-(methylamino)-2,7-naphthyridin-3-yl)-2-methylcyclopropanecarboxamide]: in assay [1] (setting [2]), the IC50 is at most 500 nM.
